Experimental data reported in patent publication US20080181971A1, “Combination Cancer Treatments Comprising Elsamitrucin and Other Agents” (priority 2007, published 2008).

Tested on: HCT116 human colon carcinoma
Assay: HCT116-e256 study: tumor growth delay of subcutaneous HCT116 xenografts in nude mice
Format: in vivo
Settings: for Median TTE (time to endpoint): endpoint 2000 mm^3, control 25.1; for tumor growth delay (TGD): percent of median TTE of untreated group
Description: Tumors were measured twice weekly during the experiment, and each animal was euthanized when its tumor reached the endpoint volume of 2000 mm^3 or on the last day of the study (Day 59), whichever came first.
Treatment outcome was assessed by tumor growth delay (TGD), defined as the difference in median time to endpoint tumor burden in a treatment group compared to a control group.
a. Mice. […] The mice were housed on irradiated ALPHA-Dri® Bed-O'Cobs® Laboratory Animal Bedding in static microisolators on a 12-hour light cycle at 21-22° C. (70-72° F.) and 40-60% humidity. Testing facilities complied with the recommendations of the Guide for Care and Use of Laboratory Animals with respect to restraint, husbandry, surgical procedures, feed and fluid regulation, and veterinary care. The animal care and use program at the testing facility is accredited by AAALAC, which assures compliance with accepted standards for the used and care of laboratory animals.
b. Tumor Implantation. […] On the day of tumor implant, the cells were trypsinized, harvested by centrifugation and resuspended in phosphate buffered saline. Each mouse received 5×10^6 HCT116 tumor cells in 0.2 mL implanted subcutaneously in the right flank, and tumor growth was monitored. […] Tumor volume was calculated using the formula: […]
c. Therapeutic Agents. […] The 0.5 mg/mL dosing solution was prepared by 2-fold dilution in distilled water. Both solutions were prepared fresh for each dose administered.
Dosing solutions of 0.75 and 1.5 mg/mL were formulated fresh for each dose by diluting the stock solution ten-fold with D5W.
d. Treatment Plan. […] Note the routes of administration and schedules detailed in Table 10. All doses were given in volumes of 0.2 mL per 20 g of body weight (10 mL/kg), and were scaled to the body weight of the animal.
e. Endpoint. Tumors were measured twice weekly using calipers. Each animal was euthanized when its tumor reached the endpoint size of 2000 mm^3 or at the conclusion of the study on Day 59, whichever came first. The time to endpoint (TTE) for each mouse was calculated from the following equation: […]
where b is the intercept and m is the slope of the line obtained by linear regression of a log-transformed tumor growth data set. The data set was comprised of the first observation that exceeded the study endpoint volume and the three consecutive observations that immediately preceded the attainment of the endpoint volume. […] Animals classified as NTR (non-treatment-related) deaths due to accident (NTRa) or due to unknown causes (NTRu) were excluded from TTE calculations (and all further analyses). Animals classified as TR (treatment-related) deaths or NTRm (non-treatment-related death due to metastasis) were assigned a TTE value equal to the day of death.
Treatment outcome was evaluated by tumor growth delay (TGD), which is defined as the increase in the median time to endpoint (TTE) in a treatment group compared to the control group:
Treatment may cause partial regression (PR) or complete regression (CR) of the tumor in an animal. […] An animal with a CR response at the termination of a study is additionally classified as a tumor-free survivor (TFS). Regression responses were monitored and recorded.
g. Statistical and Graphical Analyses. The Logrank test was used to analyze the significance of the differences between the TTE values of treated and control groups. Two-tailed statistical analyses were conducted at significance level P=0.05.
Median tumor growth curves show group median tumor volumes as a function of time. When an animal exited the study due to tumor size, the final tumor volume recorded for the animal was included with the data used to calculate the group median tumor volume at subsequent time points. Curves were truncated after 50% of the animals in a group had exited the study, or after the second TR death in a group, whichever came first (see the exception in FIG. 8).

[1] = Groups 2,4,6,8,10: elsamitrucin 10 mg/kg ip q4d x3, paclitaxel 15 mg/kg iv qod x5, cisplatin 2.7 mg/kg ip qd x5
[2] = Groups 3,5,7,9,11: elsamitrucin 5 mg/kg ip q4d x3, paclitaxel 7.5 mg/kg iv qod x5, cisplatin […] ip qd x5

SMILES	% TGD = [(T − C)/C] × 100 [1]	No. of CR (complete regression) [1]	No. of PR (partial regression) [1]	No. of TFS (tumor free survivor) [1]	T − C (difference between median TTE of treated versus control group) [1]	Median TTE (time to endpoint) [1]	% TGD = [(T − C)/C] × 100 [2]	No. of CR (complete regression) [2]	No. of PR (partial regression) [2]	No. of TFS (tumor free survivor) [2]	T − C (difference between median TTE of treated versus control group) [2]	Median TTE (time to endpoint) [2]	tumor growth delay (TGD) (higher dose level)	tumor growth delay (TGD) (lower dose level)	MTV (n) Day 59 (median tumor volume) (Groups 2,4,6,8,10: elsamitrucin 10 mg/kg ip q4d x3, paclitaxel 15 mg/kg iv qod x5, animals remaining on Day 59, n in brackets)	tumor regressions (elsamitrucin monotherapy groups, 10 or 5 mg/kg i.p. q4d x3)	partial regression response (higher dose level, animals of ten)
N.N.[Cl][Pt][Cl] [Cisplatin, cisplatin]	23%	0	0	0	5.7 days	30.8 days	1%	0	0	0	0.2 days	25.3 days	23%	1%	–	–	–
CO[C@@H]1[C@@H](N)[C@@H](O[C@H]2[C@H](Oc3cccc4c(O)c5c(=O)oc6ccc(C)c7c(=O)oc(c34)c5c67)O[C@H](C)[C@H](O)[C@]2(C)O)O[C@H](C)[C@@H]1O [Elsamitrucin, benzo(h)(1)benzopyrano(5,4,3-cde)(1)ebnzopyran-5,12-dione,10((2-O-(2-amino-2,6-dideoxy-3-O-methyl-alpha-D-galactopyranosyl)-6-deoxy-3-C-methyl-beta-D-galactopyranosyl)oxy)-6-hydroxy-1-methyl]	8%	0	0	0	2.0 days	27.1 days	6%	0	0	0	1.4 days	26.5 days	–	–	88 (1) mm^3	No tumor regressions	–
CC(=O)O[C@H]1C(=O)[C@@]2(C)[C@H]([C@H](OC(=O)c3ccccc3)[C@]3(O)C[C@H](OC(=O)[C@H](O)[C@@H](NC(=O)c4ccccc4)c4ccccc4)C(C)=C1C3(C)C)[C@]1(OC(C)=O)CO[C@@H]1C[C@@H]2O [Paclitaxel, paclitaxel]	59%	0	1	0	14.7 days	39.8 days	22%	0	0	0	5.6 days	30.7 days	–	–	–	–	1/10
